Patent US10968214B2, “KRas G12C inhibitors” (Eli Lilly and Company, priority 2018, dated 2021)
Like-named read-outs stand apart in the source and are kept apart here.

Columns and labels:
SW837 xenograft = experiment: Anti-tumor growth activity, SW837 colorectal xenograft; assay type: in vivo; conditions: for Tumor Growth Inhibition (%) or Regression (−%): 28 Day, negative = regression
SW1463 xenograft = experiment: Anti-tumor growth activity, SW1463 colorectal xenograft; assay type: in vivo; conditions: for Tumor Growth Inhibition (%) or Regression (−%): 28 Day, negative = regression
[1] = system: pERK in H2122 xenograft tumors; experiment: In vivo target inhibition/PD, H2122 xenograft, pERK; conditions: Mus musculus, NCI-H2122; for inhibition at 10 mg/kg: 10 mg/kg single dose
Protocol: (§1) To evaluate in vivo target inhibition and anti-tumor efficacy of a compound, Human lung cancer cells, H358 or H2122 are implanted into nude mice xenograft tumor models. Either H358 or H2122 cells (10×10^6 in a 1:1 Matrigel® mix, 0.2 mL total volume) are implanted by subcutaneous injection in hind leg of nude female mice (Harlan Laboratories). A total of 5 mice each group are used for efficacy study, and a total of 3-4 mice each group are used for target engagement and PD study. Treatment is initiated with oral administration (gavage) of a test compound or vehicle (20% Captisol®, 25 mM phosphate, pH 2.0 in 0.2 mL volume when the tumor size reaches approximately […]. Tumor growth and body weight are monitored over time to evaluate efficacy and signs of toxicity. Bidimensional measurements of tumors are performed twice a week and tumor volumes are calculated based on mid-axis length and mid-axis width. Tumor volume data are transformed to a log scale to equalize variance across time and treatment groups. The log volume data are analyzed with a two-way repeated measures analysis of variance by time and treatment using the mixed procedures in SAS software (version 8.2). The correlation model for the repeated measures is spatial power. Treated groups are compared to the control group at each time point. The mixed procedure is also used separately for each treatment group to calculate adjusted means and standard errors at each time point. Both analyses account for the autocorrelation within each animal. The adjusted means and standard errors are plotted for each treatment group versus time.
(§2) For in vivo target inhibition and PD analysis, tumors are ground by mortar and pestle on dry ice and tumor fragments are added to 800 μL of lysis buffer containing 1% Triton X100, 25 mM Tris pH 7.5, 150 mM NaCl, 1 mM EDTA, and 1 mM EGTA with Halt protease and phosphatase inhibitor cocktail (Thermo Scientific, cat. no. 1861281) in lysing matrix D tubes (MP Biomedical®, cat. no. 6913-500) with one additional large bead (MP Biomedical® ¼″ ceramic sphere bead cat. no. 6540-412) per tube. Tumor fragments are homogenized in a Thermo Bio101® fast prep (FP120) at setting 4 for […] while cold for a total of 2 times. Lysates are spun at 14,000 rpm for 10 min at 4° C. to clarify. Protein estimation is done on the lysate supernatant using a BioRad Dc® protein assay and lysates are diluted in complete lysis/binding buffer from the Ras GTPase Chemi ELISA Kit® (Active Motif, cat. no. 52097). The active KRas ELISA was performed as follows: Glutathione-coated ELISA wells were incubated with diluted RAF1-GST in complete lysis/binding buffer for 1 hr at 4° C. with gentle agitation. Wells are washed 3 times with wash buffer and 100 μg of lysates are added to each well and incubated at RT for 1 hr with mild agitation. The wells are washed an additional 3 times, then primary antibody, diluted in antibody binding buffer, is added to each well. The plates are incubated for 1 hr. The wells are washed 3 more times before adding HRP-conjugated secondary antibody, diluted in antibody binding buffer, to each well. The plates are incubated at RT for 1 hr. ELISA wells are washed 4 times, chemiluminescent reagents is added and then luminescence is read. For pERK Meso Scale Discovery ELISA, 25 μg of protein containing 0.1% SDS is used; for pMEK Meso Scale Discovery ELISA, 50 μg of protein without SDS is used. Meso Scale Discovery Whole Cell Lysate Kits for pERK and pMEK are provided by Meso Scale Discovery.
After a single dose, the tumor samples are harvested at different time points. The tumor lysates are prepared as described above. The inhibition of pERK, pMEK, and active KRas is measured as described above.

[2] = target: T1, active KRas in H358 xenograft tumors (Homo sapiens, UniProt P01116, G12C); experiment: In vivo target inhibition/PD, H358 xenograft, active KRas; parameters: species or system mouse; conditions: for inhibition at 10 mg/kg: 10 mg/kg single dose; for inhibition at 30 mg/kg: 30 mg/kg single dose
T1 construct: from tissue; host or cells: H358 xenograft tumours from nude mice
Protocol: as §1, §2
The tumor samples are collected 4 hr post a single dose. The tumor lysates are prepared and the inhibition of pERK, pMEK, and active KRas is measured as described above.
After a single dose, the tumor samples are harvested at 2, 4, 8, 12 and 24 hr post doing. The tumor lysates are prepared and the inhibition of pERK, pMEK, and active KRas is measured as described above.

LU-99 = experiment: CellTiterGlo Cell Proliferation Assay, LU-99; assay type: cell-based; conditions: Homo sapiens, KRas G12C, Lung, 96 hr
Protocol: A panel of tumor cell lines harboring KRas G12C or other KRas mutations are collected (Table 6). All cell lines are from ATCC or other sources indicated.
Typically cells are cultured in RPMI1640 or Dulbecco's modified Eagle's medium (DMEM, GIBCO) supplemented with 10% FBS (GIBCO, Invitrogen). For 2D culture cells (4×10^3/well) maintained in growth medium described above, are plated onto 96 well tissue culture plates Corning® Cat. 3603) a day before the treatment. For 3D culture 8000 cells/well are seeded onto 96 well ultra-low attachment tissue culture plates (Corning, #3474). The cells are treated compound for 96 hr, and then are analyzed for viability using the CellTiterGlo® Luminescent Cell Viability Assay® (Promega #G7572 for 2D and Promega #G9683 for 3D cultures) according to manufacturer's instructions and an EnVision™ plate reader. Nonlinear regression and sigmoidal dose-response curves are used to calculate the half maximal inhibitory concentration (IC50) with GraphPad Prism 4® software.

[3] = NCI-H358, mouse, 4 hr post dose, read-out: % Inhibition Active KRas
[4] = NCI-H358, mouse, time course, 2 hr, read-out: % Inhibition Active KRas
[5] = NCI-H358, mouse, time course, 4 hr, read-out: % Inhibition Active KRas
[6] = NCI-H358, mouse, time course, 8 hr, read-out: % Inhibition Active KRas
[7] = NCI-H358, mouse, time course, 12 hr, read-out: % Inhibition Active KRas
[8] = NCI-H358, mouse, time course, 24 hr, read-out: % Inhibition Active KRas

T1 sequence (P01116 1-188 isoform P01116-2 G12C): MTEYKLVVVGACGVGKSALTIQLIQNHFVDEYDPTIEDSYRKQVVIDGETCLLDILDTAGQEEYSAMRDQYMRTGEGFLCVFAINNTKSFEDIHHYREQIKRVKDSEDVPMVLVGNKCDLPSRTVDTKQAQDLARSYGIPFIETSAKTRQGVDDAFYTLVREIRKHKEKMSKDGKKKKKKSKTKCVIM

`C=CC(=O)N1CCN(c2ncnc3c(F)c(-c4ccc(F)c5sc(N)nc45)c(Cl)cc23)CC1` [Example 1, 1-{4-[7-(2-Amino-7-fluoro-1,3-benzothiazol-4-yl)-6-chloro-8-fluoroquinazolin-4-yl]piperazin-1-yl}prop-2-en-1-one] was tested, and the “Tumor Growth Inhibition (%) or Regression (−%)” value (from here on “Tumor Growth Inhibition … (−%)”) (SW837 xenograft; 15 mg/kg BID) was −17%, the “Tumor Growth Inhibition … (−%)” value (SW837 xenograft; 30 mg/kg BID) was −46.1% and the “Tumor Growth Inhibition … (−%)” value (SW837 xenograft; 30 mg/kg QD) was −10.8%. The “In Vivo Anti-Tumor Activities” value (SW837 xenograft; Example 1 30 mg/kg QDx28) was −51.8, the “Tumor Growth Inhibition … (−%)” value (SW1463 xenograft; 15 mg/kg BID) was −27% and the “Tumor Growth Inhibition … (−%)” value (SW1463 xenograft; 30 mg/kg BID) was −47.9%. The “Tumor Growth Inhibition … (−%)” value (SW1463 xenograft; 30 mg/kg QD) was −13.9%, the “In Vivo Anti-Tumor Activities” value (SW1463 xenograft; Example 1 30 mg/kg QDx28) was −21.4 and the inhibition at 10 mg/kg ([1]; H2122 xenograft, 2 hr, read-out: % Inhibition pERK) was 46.8%. It also gave an inhibition at 10 mg/kg ([1]; H2122 xenograft, 4 hr, read-out: % Inhibition pERK) of 47%, an inhibition at 10 mg/kg ([1]; H2122 xenograft, 8 hr, read-out: % Inhibition pERK) of 34.5% and an inhibition at 10 mg/kg ([1]; H2122 xenograft, 12 hr, read-out: % Inhibition pERK) of 7.2%. The inhibition at 10 mg/kg ([1]; H2122 xenograft, 24 hr, read-out: % Inhibition pERK) was -2.8%, the inhibition at 10 mg/kg ([1]; H2122 xenograft, from 2-12 hr, read-out: pERK inhibition) was 7 to 47% and the inhibition at 30 mg/kg ([1]; H2122 xenograft, 30 mg/kg single dose, 2 hr, read-out: % Inhibition pERK) was 75.6%. The inhibition at 30 mg/kg ([1]; H2122 xenograft, 30 mg/kg single dose, 4 hr, read-out: % Inhibition pERK) was 75.3%, the inhibition at 30 mg/kg ([1]; H2122 xenograft, 30 mg/kg single dose, 8 hr, read-out: % Inhibition pERK) was 67.4% and the inhibition at 30 mg/kg ([1]; H2122 xenograft, 30 mg/kg single dose, 12 hr, read-out: % Inhibition pERK) was 48.8%. The inhibition at 30 mg/kg ([1]; H2122 xenograft, 30 mg/kg single dose, 24 hr, read-out: % Inhibition pERK) was 20.4%, the inhibition at 100 mg/kg ([1]; H2122 xenograft, 100 mg/kg single dose, 4 hr) was 79.1% and the inhibition at 30 mg/kg ([1]; read-out: pERK inhibition) was 49 to 76%. It also gave an inhibition at 1 mg/kg ([2]; NCI-H358, mouse, 1 mg/kg single dose, 4 hr post dose) of -1.9%, an inhibition at 3 mg/kg ([2]; NCI-H358, mouse, 3 mg/kg single dose, 4 hr post dose) of -2.9% and an inhibition at 10 mg/kg [2, 3] of 40.9%. For the same compound, the inhibition at 10 mg/kg ([2]; NCI-H358, mouse, from 2-24 hr, read-out: active Kras inhibition) was 21 to 61%, the inhibition at 30 mg/kg [2, 3] was 83.2% and the inhibition at 30 mg/kg ([2]; NCI-H358, mouse, from 2-24 hr, read-out: active KRas inhibition) was 29 to 70%. The inhibition at 100 mg/kg ([2]; NCI-H358, mouse, 100 mg/kg single dose, 4 hr post dose) was 87.4%, the inhibition at 10 mg/kg [2, 4] was 26.1% and the inhibition at 10 mg/kg [2, 5] was 32.9%. It also gave an inhibition at 10 mg/kg [2, 6] of 30%, an inhibition at 10 mg/kg [2, 7] of 61.1% and an inhibition at 10 mg/kg [2, 8] of 21.5%. For the same compound, the inhibition at 30 mg/kg [2, 4] was 70.4%, the inhibition at 30 mg/kg [2, 5] was 65% and the inhibition at 30 mg/kg [2, 6] was 66.5%. The inhibition at 30 mg/kg [2, 7] was 28.7%, the inhibition at 30 mg/kg [2, 8] was 37.7% and the EC50 ([2]; plasma exposure by mass spectrum, read-out: plasma concentration to achieve 50% target inhibition (TEC50), active KRas) was 0.574 µM. For the same compound, the “dose to achieve 50% target inhibition (TED50), active KRas” value ([2]; single dose, 4 hr) was 11.2 mg/kg, the IC50 (LU-99; read-out: IC50 (μM) in 2 D cell proliferation) was 1.57 µM and the IC50 (LU-99; read-out: IC50 (μM) in 3 D spheroid cell proliferation) was 0.659 µM.
